Consider 28 compounds from patent US11618747B2, “LXR modulators with bicyclic core moiety” (OrsoBio, Inc., priority 2018, dated 2023).

One may read the EC50 as the midpoint of the concentration-response curve.

In assay [1] the target is T1, LXRβ ligand-binding domain (Homo sapiens, UniProt P55055, DUP175-175).
T1 construct: amino acids 156-461; NP009052; made in house; host or cells: E. coli
T1 sequence (P55055 with tags, fused parts or gaps DUP175-175 limits assumed): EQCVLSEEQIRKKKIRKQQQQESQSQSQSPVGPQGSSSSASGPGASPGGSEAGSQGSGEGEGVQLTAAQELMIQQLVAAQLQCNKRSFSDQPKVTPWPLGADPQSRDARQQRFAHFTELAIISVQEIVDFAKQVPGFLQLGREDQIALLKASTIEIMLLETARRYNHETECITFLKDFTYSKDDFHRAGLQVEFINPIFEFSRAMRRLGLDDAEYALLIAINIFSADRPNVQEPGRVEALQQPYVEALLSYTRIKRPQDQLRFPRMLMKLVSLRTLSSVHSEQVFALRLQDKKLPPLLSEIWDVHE
The assay can be described thus: TR-FRETβ activity assay (NCoA3 coactivator peptide recruitment). It counts as biochemical. Particulars: TR-FRET, 1 μM 24(S)-25-epoxycholesterol prestimulation; read-out: FRETβ (EC50 range). The essentials:
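Inverse agonism assessed by loss of coactivator recruitment, read as TR-FRET 665/615 nm after 1 h equilibration at 4 °C, in triplicate. Ten-point titration from 50 μM to 0.002 μM against LXRβ LBD (76 nM, GST fusion) prestimulated with 1 μM 24(S)-25-epoxycholesterol, with 400 nM NCoA3 peptide, pH 6.8. Sulfonyl acetic acids kept as 20 mM DMSO stocks with 100 mM TFA.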
(In TR-FRET formats the signal depends on donor and acceptor labels being close together.)

In the next assay the target is T2, full length (FL) LXRα (Homo sapiens, UniProt Q13133).
T2 construct: the full length (FL) proteins of LXRα (amino acids 1-447); NP005684; expressed in transfected cells; host or cells: HEK293
T2 sequence (Q13133 1-447): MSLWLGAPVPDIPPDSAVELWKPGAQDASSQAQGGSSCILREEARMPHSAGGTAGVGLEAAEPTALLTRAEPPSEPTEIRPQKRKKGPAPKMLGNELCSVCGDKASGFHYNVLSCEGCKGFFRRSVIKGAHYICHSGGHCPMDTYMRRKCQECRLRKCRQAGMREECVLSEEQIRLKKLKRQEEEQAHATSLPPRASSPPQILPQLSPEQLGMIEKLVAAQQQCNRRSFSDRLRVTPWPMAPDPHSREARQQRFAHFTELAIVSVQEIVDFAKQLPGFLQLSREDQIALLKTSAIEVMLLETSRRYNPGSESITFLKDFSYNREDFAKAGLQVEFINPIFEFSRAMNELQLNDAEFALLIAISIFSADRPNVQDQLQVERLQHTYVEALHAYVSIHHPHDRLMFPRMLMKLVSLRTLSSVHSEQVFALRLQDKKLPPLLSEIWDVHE
The assay can be described thus: LXR Gal4 reporter transient transfection assay (FL-M2H Gal4α). The settings on record: HEK293 cells, full length LXRα; read-out: FL-M2H Gal4α (EC50 range). Format: cell-based. The essentials:
(§1)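 Test compounds act for 16 h on transiently transfected HEK293 cells carrying AD-LXR and GAL4 BD-cofactor (SRC1 or NCoR) fusions. Firefly luciferase under GAL4 elements is quantified and corrected with Renilla luciferase for transfection efficiency.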

The next assay has as its target T3, full length (FL) LXRβ (Homo sapiens, UniProt P55055, DUP175-175).
T3 construct: the full length (FL) proteins of LXRα (amino acids 1-447); NP005684; NP009052; expressed in transfected cells; host or cells: HEK293
T3 sequence (P55055 with tags, fused parts or gaps DUP175-175): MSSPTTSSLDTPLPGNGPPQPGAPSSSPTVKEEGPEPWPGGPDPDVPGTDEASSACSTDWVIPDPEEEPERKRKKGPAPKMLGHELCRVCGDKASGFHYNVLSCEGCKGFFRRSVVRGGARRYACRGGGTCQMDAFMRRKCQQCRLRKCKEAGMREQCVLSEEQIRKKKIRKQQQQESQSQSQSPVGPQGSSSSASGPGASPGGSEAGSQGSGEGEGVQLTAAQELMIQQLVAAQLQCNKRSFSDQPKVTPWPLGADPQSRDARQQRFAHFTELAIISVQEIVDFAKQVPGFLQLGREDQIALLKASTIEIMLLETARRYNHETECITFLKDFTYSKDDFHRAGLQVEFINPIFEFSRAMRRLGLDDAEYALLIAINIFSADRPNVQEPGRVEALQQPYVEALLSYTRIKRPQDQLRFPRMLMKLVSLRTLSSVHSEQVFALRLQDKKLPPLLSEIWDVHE
The experiment in a line: LXR Gal4 reporter transient transfection assay (FL-M2H Gal4β). It counts as cell-based. Particulars: HEK293 cells, full length LXRβ; read-out: FL-M2H Gal4β (EC50 range). Put shortly:
as §1

As to `CN1CC(F)(c2ccccc2-c2c(-c3cccc(-c4ccc(C(=O)O)cc4Cl)c3)n(S(=O)(=O)c3ccc(C(F)F)cc3)c3ccc(F)cc23)C1` [3/62], the figures for the half-maximal effective concentration (EC50) (in assay [1]; on full length (FL) LXRα; at full length (FL) LXRβ) were 100 to 1000 nM, 100 to 1000 nM and less than 100 nM, respectively.
With `Cc1ccc(S(=O)(=O)n2c(-c3cccc(C4CC(C(=O)O)C4)c3)c(-c3ccsc3C#N)c3cc(F)ccc32)cc1` (stereo not drawn) [3/39], the results for the concentration for a half-maximal effect (EC50) (in assay [1]; at full length (FL) LXRα; on full length (FL) LXRβ) were 100 to 1000 nM, 100 to 1000 nM and less than 100 nM, respectively.
For `N#Cc1sccc1-c1c(-c2cccc(N3CCC(C(=O)O)CC3)c2)n(S(=O)(=O)c2ccc(C(F)F)cc2)c2ccc(F)cc12` [3/60], the EC50 in assay [1] is 100 to 1000 nM; at full length (FL) LXRα it was less than 100 nM; at full length (FL) LXRβ it was less than 100 nM.
For `Cc1cccc(C)c1-c1c(-c2cccc(-c3ccc(C(=O)O)cc3Cl)c2)n(S(=O)(=O)c2ccc(C(F)F)cc2)c2ccc(F)cc12` [11/14], the EC50 (in assay [1]; at full length (FL) LXRα; at full length (FL) LXRβ) was less than 100 nM throughout.
Consider `Cc1ccc(S(=O)(=O)n2c(-c3cccc(-c4ccc(C(=O)O)nc4)c3)c(-c3ccsc3C#N)c3cc(F)ccc32)cc1` [3/47], for which the EC50 is 100 to 1000 nM in assay [1], less than 100 nM at full length (FL) LXRα and less than 100 nM on full length (FL) LXRβ.
Take `Cc1ccc(S(=O)(=O)n2c(-c3cccc(N4CCC(C)(C(=O)O)CC4)c3)c(-c3ccsc3C#N)c3cc(F)ccc32)cc1` [3/50]: the values for the EC50 (in assay [1]; on full length (FL) LXRα; at full length (FL) LXRβ) were 100 to 1000 nM, less than 100 nM and less than 100 nM, respectively.
Regarding `N#Cc1sccc1-c1c(-c2cccc(N3CC(C(=O)O)C3)c2)n(S(=O)(=O)c2ccc(C(F)F)cc2)c2ccc(F)cc12` [3/35], the figures for the EC50 (in assay [1]; on full length (FL) LXRα; on full length (FL) LXRβ) were 100 to 1000 nM, 100 to 1000 nM and less than 100 nM, respectively.
Take `CC(C)(C)OC(=O)CNC(=O)c1ccc(-c2cccc(-c3c(-c4c(C#N)cccc4C#N)c4cc(F)ccc4n3S(=O)(=O)c3ccc(C(F)F)cc3)c2)c(Cl)c1` [6/3]: the EC50 (in assay [1]; on full length (FL) LXRα; on full length (FL) LXRβ) was less than 100 nM in each case.
On to `Cc1ccc(S(=O)(=O)n2c(-c3cccc(N4CC(C(=O)O)C4)c3)c(-c3ccsc3C=O)c3cc(F)ccc32)cc1` [3/5], for which the EC50 (in assay [1]; at full length (FL) LXRα; at full length (FL) LXRβ) was 100 to 1000 nM each time.
In the case of `N#Cc1cccc(C#N)c1-c1c(-c2cccc(N3CC(C(=O)O)C3)c2)n(S(=O)(=O)c2ccc(C(F)F)cc2)c2ccc(F)cc12` [3/67], the EC50 (in assay [1]; at full length (FL) LXRα; on full length (FL) LXRβ) was 100 to 1000 nM in each case.
As to `Cc1ccc(S(=O)(=O)n2c(-c3cccc(N4[C@@H]5CC[C@H]4C[C@@H](C(=O)O)C5)c3)c(-c3ccsc3C#N)c3cc(F)ccc32)cc1` [3/58], the figures for the concentration giving a half-maximal response (EC50) (in assay [1]; on full length (FL) LXRα; at full length (FL) LXRβ) were 1000 to 10000 nM, less than 100 nM and less than 100 nM, respectively.
With `Cc1ccc(S(=O)(=O)n2c(-c3cccc(N4CC(C(=O)O)C4)c3)c(-c3ccsc3CCO)c3cc(F)ccc32)cc1` [3/27], the EC50 in assay [1] was 1000 to 10000 nM; on full length (FL) LXRα it was 100 to 1000 nM; on full length (FL) LXRβ, 100 to 1000 nM.
In the case of `O=C(O)c1ccc(-c2cccc(-c3c(-c4ccsc4C(F)F)c4cc(F)ccc4n3S(=O)(=O)c3ccc(Cl)cc3)c2)c(Cl)c1` [11/21], the EC50 (in assay [1]; at full length (FL) LXRα; on full length (FL) LXRβ) was less than 100 nM throughout.
On to `Cc1ccc(S(=O)(=O)n2c(-c3cccc(-n4ccc(C(=O)O)cc4=O)c3)c(-c3ccsc3C#N)c3cc(F)ccc32)cc1` [5/5], for which the EC50 (in assay [1]; on full length (FL) LXRα; on full length (FL) LXRβ) was 100 to 1000 nM in each case.
Regarding `Cc1ccc(S(=O)(=O)n2c(-c3cccc(N4CC(C(=O)O)C4)c3)c(-c3ccsc3C(F)F)c3cc(F)ccc32)cc1` [3/4], the EC50 in assay [1] was 100 to 1000 nM; on full length (FL) LXRα, 100 to 1000 nM; on full length (FL) LXRβ it was less than 100 nM.
As for `CC1CCN(S(=O)(=O)n2c(-c3cccc(-c4ccc(C(=O)O)cc4Cl)c3)c(-c3ccsc3C#N)c3cc(F)ccc32)CC1` [3/21], the figures for the EC50 (in assay [1]; on full length (FL) LXRα; on full length (FL) LXRβ) were 100 to 1000 nM, less than 100 nM and less than 100 nM, respectively.
Take `Cc1ccc(S(=O)(=O)n2c(-c3cccc(-c4cccc(S(C)(=O)=Nc5nnn[nH]5)c4)c3)c(-c3ccsc3C#N)c3cc(F)ccc32)cc1` (stereo not drawn) [37/1]: the EC50 (in assay [1]; at full length (FL) LXRα; at full length (FL) LXRβ) was 100 to 1000 nM each time.
As to `COc1cccc(-c2c(-c3cccc(-c4ccc(C(=O)O)cc4Cl)c3)n(S(=O)(=O)c3ccc(C)cc3)c3ccc(F)cc23)c1C#N` [11/3], the EC50 (in assay [1]; on full length (FL) LXRα; at full length (FL) LXRβ) was less than 100 nM in each case.
Turning to `Cc1ccc(S(=O)(=O)n2c(-c3cccc(-c4cc(F)c(CO)c(S(C)(=O)=O)c4)c3)c(-c3ccsc3C#N)c3cc(F)ccc32)cc1` [2/16], the EC50 (in assay [1]; on full length (FL) LXRα; on full length (FL) LXRβ) was less than 100 nM each time.
Consider `CC1(C)CCN(S(=O)(=O)n2c(-c3cccc(-c4ccc(C(=O)O)cc4)c3)c(-c3ccsc3C#N)c3ccccc32)CC1` [3/66], for which the EC50 in assay [1] lay in the range of 1000 to 10000 nM; at full length (FL) LXRα it was 100 to 1000 nM; at full length (FL) LXRβ, 100 to 1000 nM.
As for `N#Cc1cccc(C#N)c1-c1c(-c2cccc(Br)c2)n(S(=O)(=O)c2ccc(C(F)F)cc2)c2ccc(F)cc12` [1/139], the EC50 is 100 to 1000 nM in assay [1], less than 100 nM at full length (FL) LXRα and less than 100 nM at full length (FL) LXRβ.
Consider `[2H]c1c([2H])c(S(=O)(=O)n2c(-c3cccc(-c4ccc(C(=O)O)cc4Cl)c3)c(-c3ccsc3C#N)c3cc(F)ccc32)c([2H])c([2H])c1C([2H])([2H])[2H]` [3/22], for which the concentration giving a half-maximal response (EC50) (in assay [1]; at full length (FL) LXRα; at full length (FL) LXRβ) was less than 100 nM throughout.
In the case of `Cc1ccc(S(=O)(=O)n2c(-c3cccc(-c4ccc(C(=O)O)cc4)c3)c(-c3ccsc3C#N)c3cc(F)cc(O)c32)cc1` [3/54], the values for the EC50 (in assay [1]; at full length (FL) LXRα; on full length (FL) LXRβ) were 100 to 1000 nM, less than 100 nM and less than 100 nM, respectively.
Regarding `N#Cc1sccc1-c1c(-c2cccc(N3CC(C(=O)O)C3)c2)n(S(=O)(=O)c2ccc(Cl)cc2)c2ccc(F)cc12` [5/7], the EC50 is 100 to 1000 nM in assay [1], 100 to 1000 nM at full length (FL) LXRα and less than 100 nM at full length (FL) LXRβ.
For the compound `COC(=O)c1ccc(-c2cccc(-c3c(-c4c(C)cccc4C#N)c4cc(F)ccc4n3S(=O)(=O)c3ccc(C(F)F)cc3)c2)c(Cl)c1` [1/122], the EC50 in assay [1] is 100 to 1000 nM; at full length (FL) LXRα it was less than 100 nM; at full length (FL) LXRβ it was less than 100 nM.
On to `Cc1ccc(S(=O)(=O)n2c(-c3cccc(N4CC(C)(C(=O)O)C4)c3)c(-c3ccsc3C#N)c3cc(F)ccc32)cc1` [3/37], for which the EC50 in assay [1] was 100 to 1000 nM; at full length (FL) LXRα it was less than 100 nM; on full length (FL) LXRβ, less than 100 nM.
Regarding `Cc1ccc(S(=O)(=O)n2c(-c3cccc(-c4ccc(C(=O)O)cc4Cl)c3)c(-c3cccc(C)c3C#N)c3cc(F)ccc32)cc1` [11/2], the EC50 (in assay [1]; on full length (FL) LXRα; at full length (FL) LXRβ) was less than 100 nM each time.
For `O=C(NCCS(=O)(=O)O)C1CC1c1cccc(-c2c(-c3c(Cl)cccc3Cl)c3cc(F)ccc3n2S(=O)(=O)c2ccc(C(F)F)cc2)c1` (stereo not drawn) [10/4], the EC50 was less than 100 nM in assay [1], 100 to 1000 nM on full length (FL) LXRα and less than 100 nM at full length (FL) LXRβ.
